Experiment [1] is described as follows: Hepatic phospholipids in rats after intoxication with CCl4. Conditions: for Total phospholipids: average ± E.S. of 10 values. In kind it is in vivo, rat. From the text:
This was confirmed by successive pharmacological tests. […] Hepatic phospholipids in rats after intoxication with CCl4 and treatment with SAM.

A short description of experiment [2]: Hexobarbital sleeping time in mice. In kind it is in vivo, mouse. Here is the method:
A further aspect considered by us was the possible action of SAM on the sleeping time by barbiturates. For this purpose an experiment was made in which groups of mice received hexobarbital in a dose of 80 mg/kg/i.p. in accordance with the method of Holten and Larsen (Acta Pharmacol. […] (table).

For the compound `C[S+](CC[C@H](N)C(=O)O)C[C@H]1O[C@@H](n2cnc3c(N)ncnc32)[C@H](O)[C@@H]1O` (some centres unmarked) [SAM, SAM disulphate di-p-toluenesulphonate], the Total phospholipids is reported as 27.20 ± 1.25 mg/g in experiment [1] (CCl4 + SAM 15 mg/kg/i.p.) and 20.87 ± 0.42 mg/g in experiment [1] (CCl4 + SAM 150 mg/kg/i.p.). Besides, the “levels of phospholipids reduced after intoxication with CCl4” value in experiment [1] (rats, CCl4) is “favours the restoration of normal levels of phospholipids”. Further, in experiment [2] (10 mg/kg/i.p.), the “prolonging the sleeping time induced by hexobarbital” value is listed as “active in prolonging the sleeping time”. Besides, in experiment [2] (SAM 10 mg/kg/i.p., hexobarbital 80 mg/kg/i.p.), the Sleeping time came to 41.2 ± 5.8 min.

Source of the values: patent US3954726A, “Double salts of S-adenosil-L-methionine” (Bioresearch Limited, priority 1973, dated 1976).
